# Reference: BindingDB's records for doi:10.1016/S0960-894X(01)80562-X (1994)
# Molecular target: Angiotensin-converting enzyme (Rattus norvegicus) (UniProt P47820)
# Assay: In vitro inhibitory activity against angiotensin converting enzyme (ACE) in rat was determined
# Sequence of Angiotensin-converting enzyme (Rattus norvegicus) (P47820 whole entry, looked up): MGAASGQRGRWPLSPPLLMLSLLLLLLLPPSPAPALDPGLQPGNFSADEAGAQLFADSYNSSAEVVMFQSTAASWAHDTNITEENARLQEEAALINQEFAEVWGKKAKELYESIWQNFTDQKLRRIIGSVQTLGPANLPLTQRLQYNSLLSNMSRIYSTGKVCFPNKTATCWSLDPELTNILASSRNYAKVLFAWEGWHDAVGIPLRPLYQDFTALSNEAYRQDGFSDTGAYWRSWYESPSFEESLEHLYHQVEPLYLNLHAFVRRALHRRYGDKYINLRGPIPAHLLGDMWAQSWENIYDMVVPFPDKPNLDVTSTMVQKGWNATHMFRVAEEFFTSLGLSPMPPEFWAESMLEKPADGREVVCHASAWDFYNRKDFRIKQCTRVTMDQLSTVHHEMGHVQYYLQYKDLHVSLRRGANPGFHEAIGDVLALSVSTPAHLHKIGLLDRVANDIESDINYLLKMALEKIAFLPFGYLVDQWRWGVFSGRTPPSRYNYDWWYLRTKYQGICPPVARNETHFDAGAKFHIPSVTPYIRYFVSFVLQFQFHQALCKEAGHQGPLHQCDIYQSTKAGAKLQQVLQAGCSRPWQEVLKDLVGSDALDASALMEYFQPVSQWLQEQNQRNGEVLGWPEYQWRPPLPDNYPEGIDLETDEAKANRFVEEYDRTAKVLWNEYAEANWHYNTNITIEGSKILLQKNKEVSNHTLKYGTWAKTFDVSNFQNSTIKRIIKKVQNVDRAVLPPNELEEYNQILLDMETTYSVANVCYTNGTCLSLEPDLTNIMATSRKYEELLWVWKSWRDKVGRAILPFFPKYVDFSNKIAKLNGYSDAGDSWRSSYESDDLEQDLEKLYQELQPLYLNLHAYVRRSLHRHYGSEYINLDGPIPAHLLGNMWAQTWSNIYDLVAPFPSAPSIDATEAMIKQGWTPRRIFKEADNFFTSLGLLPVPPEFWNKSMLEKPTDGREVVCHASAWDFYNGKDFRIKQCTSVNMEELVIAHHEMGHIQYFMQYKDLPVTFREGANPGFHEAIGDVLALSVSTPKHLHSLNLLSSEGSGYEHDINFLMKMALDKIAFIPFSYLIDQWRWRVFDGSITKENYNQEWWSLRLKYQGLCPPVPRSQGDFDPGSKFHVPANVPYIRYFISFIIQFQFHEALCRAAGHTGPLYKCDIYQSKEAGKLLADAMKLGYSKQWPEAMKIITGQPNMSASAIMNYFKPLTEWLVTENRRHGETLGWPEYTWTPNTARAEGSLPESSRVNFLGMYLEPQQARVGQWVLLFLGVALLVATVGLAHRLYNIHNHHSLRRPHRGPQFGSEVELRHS
row,SMILES,IC50 [µM]
1,O=C(N[C@H]1CCC(=O)N2CCC[C@@H](C(=O)O)N2C1=O)[C@@H](S)Cc1ccccc1,0.007
2,CN1CCC[C@H](NC(=O)[C@@H](S)Cc2ccccc2)C(=O)N1CC(=O)O,0.016
3,O=C(N[C@H]1CCCN2CC[C@@H](C(=O)O)N2C1=O)[C@@H](S)Cc1ccccc1,0.012
4,CN1C(=O)CC[C@H](NC(=O)[C@@H](S)Cc2ccccc2)C(=O)N1CC(=O)O,0.016
5,O=C(N[C@H]1CCC(=O)N2CC[C@@H](C(=O)O)N2C1=O)[C@@H](S)Cc1ccccc1,0.02
6,O=C(N[C@H]1CCCN2CCC[C@@H](C(=O)O)N2C1=O)[C@@H](S)Cc1ccccc1,0.008
7,CCCN1CCC[C@H](NC(=O)[C@@H](S)Cc2ccccc2)C(=O)N1CC(=O)O,0.006
8,O=C(O)CN1NCCC[C@H](NC(=O)[C@@H](S)Cc2ccccc2)C1=O,0.06
9,CCCN1C(=O)CC[C@H](NC(=O)[C@@H](S)Cc2ccccc2)C(=O)N1CC(=O)O,0.01
